# Laboratory results from US20240216369A1, “THE USE OF A SPLICING MODULATOR FOR A TREATMENT SLOWING PROGRESSION OF HUNTINGTON'S DISEASE” (Novartis AG, priority 2019, published 2024).
# Experiments:
# [1] = First-in-human proof of concept study of oral branaplam in infants with Type 1 SMA: PK and safety; assay type: in vivo
# Source text: • Principle set-up of a pediatric ACAT/PBPK model in GastroPlus™ software including physico-chemical parameters, physiological parameters, and formulation factors. The ACAT model was linked to a full PBPK model in which tissue-to-plasma concentration ratios were estimated via in silico method provided by GastroPlus™ software. • Estimation of the clearance (CL) using plasma concentrations of branaplam from an open-label multi-part first-in-human proof of concept study of oral branaplam, Part 1 only. […] The branaplam doses were escalated in subsequent cohorts until MTD was determined or when PK results confirmed that the MTD could not be reached due to a potential pharmacokinetic exposure plateau at higher doses. […]
# The aim of part one of this study was to determine the safety and tolerability of ascending weekly doses and to estimate the maximum tolerated dose (MTD) of oral/enteral branaplam (see Example 3) in infants with Type 1 SMA. All patients had exactly 2 copies of the SMN2 gene, as determined e.g. by quantitative real time PCR or droplet digital PCR.
# Patients were dosed once weekly with branaplam. The branaplam doses were escalated in subsequent cohorts until MTD was determined or when PK results confirmed that the MTD could not be reached due to a potential pharmacokinetic exposure plateau at higher doses. […]
# [2] = system: mutant HTT protein; assay: Repeat dose timecourse study in BacHD mice: HTT protein (Western blot); assay type: in vivo
# Method: At 72 h 168 h, 240 h and 336 h (branaplam 24 mg/kg) after the last treatment (vehicle or 24 mg/kg branaplam for 1 week or 3 weeks), blood, CSF, and tissue samples were obtained for PK and PD analysis. To collect CSF, mice were placed in a rodent anesthesia induction chamber where they are exposed to 4-5% isoflurane in 100% oxygen carrier gas. Once an appropriate plane of anesthesia was achieved, they were moved to a nose cone so that maintenance levels of isoflurane (1-3%) could be delivered throughout the procedure. The dorsal aspect of their cervical and occipital region was surgically prepped to visualize the dura mater under a microscope. A glass micropipette attached to a micromanipulator was introduced to the cisterna magna via a puncture through the dura mater at a point where no vasculature was visualized, and CSF was allowed to flow into the micropipette via capillary action. After approximately 15-30 minutes, the micropipette was removed from the cisterna magna, the CSF sample was transferred into Eppendorf tubes, flash frozen in liquid nitrogen, and stored at −80° C.
# Following CSF collection, mice were kept under anesthesia with isoflurane. Blood was obtained via submandibular vein bleeds and collected for RNA extraction (PD analysis) using RNAprotect Animal Blood Tubes, and plasma (PK analysis) using K2EDTA coated tubes. Cells were removed from plasma by centrifugation for 10 min at 2000×g at 4° C., and plasma samples were stored at −80° C. Following blood collection, mice were given a lethal dose of ketamine/xylazine ([…] of a 10 mg:1 mg), and perfused with 18 mL of 0.9% cold saline mixed with 2 mL of RNAlater (Ambion) solution for tissue collection. Liver, skeletal muscle, brain striatum, brain cortex, hemibrain and cerebellum samples were flash frozen in liquid nitrogen and stored at −80° C.
# Snap-frozen mouse tissue samples were homogenized in RIPA buffer with protease and phosphatase inhibitor (Thermo Scientific) by Precellys at 6000 rpm for 40 sec. Supernatant was obtained by centrifugation for 20 min at 13,000 rpm at 4° C. Total protein concentration was quantified using the BCA protein Assay (Thermo Scientific). Samples were resolved in 3-8% Tris-Acetate protein gel under reducing condition. Proteins were transferred onto PVDF membrane (Millipore) and western blot analysis was performed using […] anti-Huntingtin antibody (Millipore #MAB2166), mouse anti-actin (Sigma, #A5316) and mouse anti-vinculin (Bio-Rad, #MCA465). Protein bands were quantified by Image J.
# With a view to characterize the time course of HTT protein lowering and recovery and to better model the PK-PD relationship an extended time-course study was performed. BacHD mice received three weekly, oral doses of 24 mg/kg branaplam for three weeks. […]
# [3] = 24 mg/kg, 3 weeks, time after last dose
structure (smiles),measurement,setting,value
"CC1(C)CC(Oc2ccc(-c3ccc(-c4cn[nH]c4)cc3O)nn2)CC(C)(C)N1 [Compound 18, 5-(1H-pyrazol-4-yl)-2-(6-((2,2,6,6-tetramethylpiperidin-4-yl)oxy)pyridazin-3-yl)phenol]",Tmax,"[1]; human, plasma, Type 1 SMA patients, oral, nominal dose range 6 to 60 mg/m^2, read-out: median time of maximum concentration (Tmax) in plasma",2.97 to 4 h
same,dose-limiting toxicity,"[1]; infants with Type 1 SMA, once weekly 6 to 60 mg/m^2, exposure 4-33 months",No dose-limiting toxicity was observed
same,maximal HTT protein lowering (relative to vehicle),"[2]; 24 mg/kg oral three times weekly for 3 weeks, 72 h after last dose",approximately 45%
same,"mutant HTT protein, 1 week versus 3 weeks of dosing","[2]; 24 mg/kg oral, three times weekly",time-dependent lowering trend
same,"return of HTT protein to baseline, cortex",[2]; [3],72 to 168 h
same,"return of HTT protein to baseline, striatum",[2]; [3],72 to 336 h
